This note sets out measurements from article PMC10578352, “Identification of a Protein Arginine Methyltransferase 7 (PRMT7)/Protein Arginine Methyltransferase 9 (PRMT9) Inhibitor” (Journal of Medicinal Chemistry, 2023).

The assay addresses T1, SET7/9/KMT7 (Homo sapiens, UniProt Q8WTS6).
T1 construct: the human recombinant SET7/9 (residues 2–366, C-terminus); GST (N); His (C); purchased Reaction Biology Corporation
T1 sequence (Q8WTS6 2-366): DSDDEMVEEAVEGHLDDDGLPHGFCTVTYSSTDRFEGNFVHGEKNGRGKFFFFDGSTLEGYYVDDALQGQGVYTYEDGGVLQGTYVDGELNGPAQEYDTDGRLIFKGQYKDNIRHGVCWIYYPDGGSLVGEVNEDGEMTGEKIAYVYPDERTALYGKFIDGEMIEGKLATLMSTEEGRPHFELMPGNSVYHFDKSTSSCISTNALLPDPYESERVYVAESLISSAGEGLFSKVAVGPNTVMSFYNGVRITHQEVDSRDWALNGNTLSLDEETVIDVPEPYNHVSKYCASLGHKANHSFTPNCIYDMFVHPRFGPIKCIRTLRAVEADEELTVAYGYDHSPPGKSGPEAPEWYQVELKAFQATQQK
In words: HotSpot KMT activity assay, SET7/9. The conditions noted are these: read-out: % SET7/9 residual activity. In kind it is biochemical. An excerpt: ; MW = 35.4 kDa; Genbank Accession # NM_018489), or the human recombinant EZH2-containing five-member polycomb repressive complex 2 (including EZH2 residues 2–746, AEBP2 2–517, EED 2–441, RbAp48 2–425, SUZ12 2–739; all full-length; with N-terminal Flag-tag on EED and N-terminal His-tag on all others; MW = 333.8 kDa; Genbank Accession # NM_001203247, NM_001114176, NM_003797, NM_005610, NM_015355), or the human recombinant G9a (residues 913–1193, C-terminus; with an N-terminal His-tag; MW = 34.6 kDa; Genbank Accession # NM_006709.3), or the human recombinant MLL1 complex (including MLL1 residues 3745–3969, C-terminus, WDR5 22–334, C-terminus, RbBP5 1–538, C-terminus, ASH2L 2–534, C-terminus, DPY-30 1–99, C-terminus; N-terminal His-tag on all subunits; MW = 212.0 kDa; Genbank Accession # NM_005933, NM_017588, NM_005057, NM_001105214, NM_0325742), or the human recombinant SET7/9 (residues 2–366, C-terminus; with a N-terminal GST-tag and a C-terminal His-tag; MW = 68.5 kDa; Genbank Accession # NM_030648), or the human recombinant SMYD3 (residues 2–428, C-terminus; C-terminal His-tag; MW = 50.1 kDa; Genbank Accession # NM_001167740), or the human recombinant SUV39H2 (residues 46–410, C-terminus; N-terminal fusion protein with a C-terminal His-tag; MW = 98.8 kDa; GenBank Accession No. NM_001193424), or the human recombinant DOT1L (residues 1–416; N-terminal GST-tag; MW = 80.0 kDa; Genbank Accession # NM_032482) was added to a solution of the proper substrate (oligo nucleosomes for ASH1L, MLL1 complex, and DOT1L, final concentration 0.05 mg/mL; core histone for EZH2 complex and SET7/9, final concentration 0.05 mg/mL; histone H3 for SUV39H2, final concentration 5 μM; histone H3 1–21 for G9a, final concentration 2.5 μM) in freshly prepared reaction buffer (50 mM Tris-HCl (pH 8.5), 5 mM MgCl2, 50 mM NaCl, 1 mM DTT, 1 mM PMSF, 1% DMSO) and gently mixed. […] After incubation for 60 min at 30 °C, the reaction mixture was delivered to filter paper for detection (as assessed by scintillation). […] Values obtained for each compound are mean ± SD determined for two separate experiments.

As for `COC(=O)c1cc(O)c2cc(NC(=O)NCCCNC(=N)NC[C@H]3O[C@@H](n4cnc5c(N)ncnc54)[C@H](O)[C@@H]3O)cc(C(F)(F)F)c2c1` [1j, Methyl 6-(3-(3-(3-(((2R,3S,4R,5R)-5-(6-Amino-9H-purin-9-yl)-3,4-dihydroxytetrahydrofuran-2-yl)methyl)guanidino)propyl)ureido)-4-hydroxy-8-(trifluoromethyl)-2-naphthoate], the remaining activity at 10 µM (10 μM) was found to be 86.3 ± 1.4%. Moreover, the remaining activity at 100 µM (100 μM) is 53.33 ± 0.38%.
